Patent publication US8283382B2, “Vitamin K for prevention and treatment of skin rash secondary to anti-EGFR therapy” (Albert Einstein College of Medicine of Yeshiva University, priority 2005, dated 2012)
Entries after “also recorded” stand apart in the source; their conditions may differ. Values belong to the compound of their own block, whether it stands above or below them.

Legend:
[1] = Matschiner et al., 1972; cited from earlier work
EGFR [2] = molecular target: EGFR (Mus musculus, UniProt Q01279); experiment: EGFR phosphorylation in mouse skin tissue (immunoblot)
Sequence of EGFR (Mus musculus, UniProt Q01279) (Q01279 25-1210): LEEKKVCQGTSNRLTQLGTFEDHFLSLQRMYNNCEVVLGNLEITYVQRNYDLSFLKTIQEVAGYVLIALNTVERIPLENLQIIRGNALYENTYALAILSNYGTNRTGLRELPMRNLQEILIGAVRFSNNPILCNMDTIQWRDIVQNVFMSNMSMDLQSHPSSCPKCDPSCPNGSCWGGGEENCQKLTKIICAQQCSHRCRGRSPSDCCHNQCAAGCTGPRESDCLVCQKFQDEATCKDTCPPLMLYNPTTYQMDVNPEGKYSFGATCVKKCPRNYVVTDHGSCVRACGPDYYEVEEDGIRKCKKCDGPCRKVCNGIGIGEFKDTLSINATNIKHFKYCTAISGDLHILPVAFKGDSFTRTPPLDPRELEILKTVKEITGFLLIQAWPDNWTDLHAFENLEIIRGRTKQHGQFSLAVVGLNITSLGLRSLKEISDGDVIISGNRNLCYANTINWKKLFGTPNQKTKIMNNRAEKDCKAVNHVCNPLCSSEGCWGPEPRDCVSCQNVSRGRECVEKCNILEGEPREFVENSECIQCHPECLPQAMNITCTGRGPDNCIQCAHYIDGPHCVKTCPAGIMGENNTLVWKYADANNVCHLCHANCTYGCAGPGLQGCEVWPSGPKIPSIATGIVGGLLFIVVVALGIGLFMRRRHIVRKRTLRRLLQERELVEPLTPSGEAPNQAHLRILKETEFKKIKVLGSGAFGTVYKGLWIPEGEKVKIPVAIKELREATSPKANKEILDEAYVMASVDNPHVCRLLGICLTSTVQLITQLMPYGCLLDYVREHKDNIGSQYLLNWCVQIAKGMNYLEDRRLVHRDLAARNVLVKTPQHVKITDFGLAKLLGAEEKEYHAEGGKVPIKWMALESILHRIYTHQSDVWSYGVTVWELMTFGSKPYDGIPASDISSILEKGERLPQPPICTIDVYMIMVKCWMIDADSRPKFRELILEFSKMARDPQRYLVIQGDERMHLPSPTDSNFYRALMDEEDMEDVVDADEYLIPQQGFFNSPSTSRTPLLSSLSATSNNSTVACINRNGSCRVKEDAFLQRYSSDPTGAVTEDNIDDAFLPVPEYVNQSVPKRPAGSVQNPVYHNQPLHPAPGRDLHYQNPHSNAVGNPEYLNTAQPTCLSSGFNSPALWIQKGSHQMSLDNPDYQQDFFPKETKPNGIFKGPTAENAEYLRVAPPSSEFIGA
Experimental: Effect of Vitamin K3 (menadione) on erlotinib-induced inhibition of EGFR phosphorylation in mouse skin. […] Mice were administrated P.O. daily 50 mg/kg of erlotinib; mouse skin was smeared with VK3 15 mM ethanol solution. After treatment, the mice were sacrificed and skin tissue was taken. 100 mg skin tissue was used for the preparation of tissue extracts. Equal amounts of skin tissue extracts (80 μg of protein) were subjected on a 7.5% SDS-PAGE. Total EGFR and p-EGFR were detected by immunoblot analysis.
Effect of VK3, Cream B and Cream VK on EGFR phosphorylation in mouse skin tissue. The mice were smeared with 30 mM or 100 mM VK3 (in ethanol), or with the same doses of Cream B or Cream VK. Following treatment, mice were sacrificed and skin tissues were taken for the preparation of tissue extracts. Equal amounts of tissue extracts (80 μg of protein) were subjected on a 7.5% of SDS-PAGE. Total EGFR and p-EGFR were detected by immunoblot analysis using polyclonal anti-EGFR and p-EGFR antibodies. Cream B is an over the counter product (Baby Cakes) containing Vitamin K3 according to its label; the concentration is not specified. Cream VK is a 5% Vitamin K cream available over the counter.
The effect of Vitamin K3 was examined in the skin of animals receiving the EGFR TK inhibitor erlotinib 100 mg/kg×10 days (days 1-10). […] The skin of mice was smeared with Vitamin K3 in ethanol (15 mM BID×5 days on days 5 to 10). The effect of Vitamin K3 was compared to that of two over-the-counter skin creams. Cream B (Baby Cakes) is an over-the-counter product containing Vitamin K3 according to its label; the concentration is not specified. Cream VK is a 5% Vitamin K cream available over-the-counter.

phosphatase activity = experiment: Phosphatase activity in A431 cell extracts with pNPP substrate; assay type: cell-based, human
Experimental: FIG. 5. […] A431 cells were exposed to 0.1 mM VK3 for 1 hour. After exposure, cells were washed three times with cold medium and then reincubated in VK3-free medium with 10% fetal bovine serum for the indicated time. Cells were harvested and cell extracts were prepared for the assay of phosphatase activity using pNPP (4-nitrophenyl phosphate disodium) as a substrate. Control (Con) means the phosphatase activity in cells without exposure to VK3. The relative phosphatase activity was expressed as compared with that in control as one. VK3-induced phosphatase inhibition is reversible following removal of VK3.
(§1) Two human cell lines that overexpress non-mutated EGFR were used: A431 vulvar carcinoma and HN5 head and neck carcinoma. Cells were exposed to different concentrations of different vitamin K analogs in the presence of one of three EGFR inhibitors: the anti-EGFR monoclonal antibody cetuximab (Erbitux®) and the EGFR tyrosine kinase inhibitors (TKIs) erlotinib (Tarceva®) and gefitinib (Iressa®). Cytotoxicity was assessed by cell counting. Cells were lysed and the effects of different vitamin K analogs on activation of EGFR, the kinase Akt, and Signal Transducer and Activator of Transcription-3 (STAT-3) were assessed by western blot analysis using antibodies for the phosphorylated (activated) forms of EGFR, Akt and Stat-3. […] Vitamins K1, K2, and K3 were purchased from Sigma-Aldrich (St Louis, Mo.). Activation of EGFR, Akt and Stat-3 were assessed in the presence and absence of anti-EGFR treatments of the cells. Activation of EGFR by vitamin K analog was also assessed using mouse skin, which was homogenized and lysed after treatment with the vitamin K analog. Phosphatase activity was determined using pNPP (4-nitrophenyl phosphate disodium) as a substrate.

[3] = system: A431 vulvar carcinoma cells; experiment: Erlotinib-induced cell growth inhibition / cytotoxicity by cell counting; assay type: cell-based, human
Experimental: as §1

[4] = cited from earlier work
Stat-3 = experiment: Western blot of phosphorylated Stat-3 in A431 / HN5 cells; assay type: cell-based, human; details: for activation (phosphorylation) of Stat-3: concentrations up to 1000 μM
Experimental: (§2) FIG. 1A-1C. Effects of Vitamins K1, K2 and K3 (VK1, VK2, VK3) on the phosphorylation of EGFR (A), AKT (B) and Stat-3 (C) in human A431 vulvar carcinoma cells. A431 cells (1×10^6 cells/well) were plated in a 6-well plate, and incubated in RPMI-1640 medium with 10% serum overnight. Cells were exposed to the indicated concentrations of VK1, VK2 and VK3 for 2 hours. Following exposure, cells were washed twice with cold phosphate buffered saline (PBS) solution, and lysed with 50 μl of lysis buffer. Equal amounts of lysate (30 μg of protein) were subjected to a 7.5% or a 12% SDS-PAGE. EGFR, phos-EGFR, AKT, phos-AKT, Stat-3, and phos-Stat-3 were detected by immunoblotting analysis using corresponding antibodies. Vitamin K3 stimulated EGFR, Akt and Stat-3.
(§3) Two human cell lines that overexpress non-mutated EGFR were used: A431 vulvar carcinoma and HN5 head and neck carcinoma. Cells were exposed to different concentrations of different vitamin K analogs in the presence of one of three EGFR inhibitors: the anti-EGFR monoclonal antibody cetuximab (Erbitux®) and the EGFR tyrosine kinase inhibitors (TKIs) erlotinib (Tarceva®) and gefitinib (Iressa®). Cytotoxicity was assessed by cell counting. Cells were lysed and the effects of different vitamin K analogs on activation of EGFR, the kinase Akt, and Signal Transducer and Activator of Transcription-3 (STAT-3) were assessed by western blot analysis using antibodies for the phosphorylated (activated) forms of EGFR, Akt and Stat-3. Polyclonal antibodies of anti-EGFR, anti-phos-EGFR (Tyr1068), anti-AKT, anti-phos-AKT (Ser473), anti-Stat-3, and anti-phos-Stat-3 (Tyr-705) were purchased from Cell Signaling (Beverly, Mass.). Vitamins K1, K2, and K3 were purchased from Sigma-Aldrich (St Louis, Mo.). Activation of EGFR, Akt and Stat-3 were assessed in the presence and absence of anti-EGFR treatments of the cells. Activation of EGFR by vitamin K analog was also assessed using mouse skin, which was homogenized and lysed after treatment with the vitamin K analog. Phosphatase activity was determined using pNPP (4-nitrophenyl phosphate disodium) as a substrate.

EGFR [5] = molecular target: T1, EGFR (Homo sapiens, UniProt P00533); experiment: Western blot of phosphorylated EGFR in A431 / HN5 cells; assay type: cell-based; details: for concentration at which activation of EGFR was seen / activation (phosphorylation) of EGFR: 2 hours exposure; for activation (phosphorylation) of EGFR: concentrations up to 1000 μM; for concentration at which activation was seen, converted to mass concentration: K3: EGFR, Akt and Stat-3, K1: EGFR and Akt
T1 construct: Two human cell lines that overexpress non-mutated EGFR were used; endogenous in cells; host or cells: A431 vulvar carcinoma; HN5 head and neck carcinoma
T1 sequence (P00533 25-1210): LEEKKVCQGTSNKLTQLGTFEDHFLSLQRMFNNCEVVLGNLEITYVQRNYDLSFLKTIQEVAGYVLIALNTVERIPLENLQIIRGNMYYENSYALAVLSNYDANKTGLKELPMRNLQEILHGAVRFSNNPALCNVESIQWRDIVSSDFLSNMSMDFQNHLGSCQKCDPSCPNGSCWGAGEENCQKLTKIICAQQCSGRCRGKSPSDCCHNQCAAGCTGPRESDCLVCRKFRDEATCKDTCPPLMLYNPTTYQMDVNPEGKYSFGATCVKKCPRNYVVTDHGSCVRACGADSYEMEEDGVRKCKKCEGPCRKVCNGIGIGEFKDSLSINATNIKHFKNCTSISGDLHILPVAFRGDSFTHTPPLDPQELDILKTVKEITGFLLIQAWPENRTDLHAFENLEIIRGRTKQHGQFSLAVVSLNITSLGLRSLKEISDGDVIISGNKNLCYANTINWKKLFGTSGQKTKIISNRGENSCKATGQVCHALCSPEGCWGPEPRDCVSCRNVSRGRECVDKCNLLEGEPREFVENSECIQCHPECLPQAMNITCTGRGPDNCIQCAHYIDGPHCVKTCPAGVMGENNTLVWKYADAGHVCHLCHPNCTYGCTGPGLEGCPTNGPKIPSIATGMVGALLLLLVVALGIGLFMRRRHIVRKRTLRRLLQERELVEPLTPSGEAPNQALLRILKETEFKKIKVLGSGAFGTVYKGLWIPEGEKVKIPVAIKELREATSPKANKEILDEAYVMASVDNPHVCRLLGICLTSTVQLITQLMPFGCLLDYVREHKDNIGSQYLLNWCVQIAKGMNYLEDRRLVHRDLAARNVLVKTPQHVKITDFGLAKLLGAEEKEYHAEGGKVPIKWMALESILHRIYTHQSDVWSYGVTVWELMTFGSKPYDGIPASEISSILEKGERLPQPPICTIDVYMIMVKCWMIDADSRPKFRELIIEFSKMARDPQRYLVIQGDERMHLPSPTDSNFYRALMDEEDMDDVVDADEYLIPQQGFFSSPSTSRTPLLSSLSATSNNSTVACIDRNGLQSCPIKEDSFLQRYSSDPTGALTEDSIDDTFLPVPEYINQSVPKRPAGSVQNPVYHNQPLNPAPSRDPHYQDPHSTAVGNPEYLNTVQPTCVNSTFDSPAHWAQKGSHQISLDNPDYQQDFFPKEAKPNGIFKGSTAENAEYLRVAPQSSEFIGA
Experimental: as §2, with “A431 cells (1×10^6 cells/well) were plated in a 6-well plate, and incubated in RPMI-1640 medium with 10% serum overnight.” left out, “antibodies.” for “antibodies. Vitamin K3 stimulated EGFR, Akt and Stat-3.”
FIG. 2. […] After exposure, cells were washed twice with cold PBS solution, and lysed with 50 μl of lysis buffer. Equal amounts of lyaste (30 μg of protein) were subjected to a 7.5% SDS-PAGE. EGFR and phosphorylated EGFR were detected by immunoblotting analysis using corresponding antibodies.
FIG. 4A-4B. […] Cells were exposed to 0.1 mM VK3 for 1 hour. Following exposure, cells were washed three times with cold medium and then reincubated in VK3-free fresh medium with 10% fetal bovine serum for the indicated times. Cells were harvested and lysed with lysis buffer. Equal amounts of cell lysate were subjected on 7.5% SDS-PAGE (A). The total EGFR and phosphorylated EGFR (p-EGFR) were detected by immunoblot analysis using corresponding antibodies. Control (Con) means cells were not exposed to VK3. The relative p-EGFR was expressed as the intensity of p-EGFR bands in each time points measured by a laser densitometry compared with that in control as one (B).
as §1

Akt = experiment: Western blot of phosphorylated Akt in A431 / HN5 cells; assay type: cell-based, human; details: for concentration at which activation of Akt was seen / activation (phosphorylation) of Akt: A431 cells, 2 hours exposure; for activation (phosphorylation) of Akt: concentrations up to 1000 μM
Experimental: as §2, §3

Compound: CC1=C(C/C=C(/C)CCC[C@H](C)CCC[C@H](C)CCCC(C)C)C(=O)c2ccccc2C1=O (single isomer, unassigned) [cis isomer]
biological activity [1]: little or no biological activity

EGFR phosphorylation in mouse skin tissue (EGFR [2]; skin smeared with 30 mM or 100 mM (VK3 in ethanol) x 3 doses every 12 hours, same doses of creams): activates EGFR
activation of EGFR in normal mouse skin (EGFR [2]; topical application): activated
reversibility of induced EGFR phosphorylation (EGFR [5]; A431 cells, 0.1 mM VK3 1 hour, then VK3-free medium): reversible
concentration at which activation of EGFR was seen (EGFR [5]; A431 cells): 100 µM
activation (phosphorylation) of EGFR (EGFR [5]; A431 cells): stimulated; also recorded: activated
concentration at which activation was seen, converted to mass concentration (EGFR [5]; A431 cells): about 17 μg/ml
activation of EGFR in the presence of cetuximab (EGFR [5]; Vitamin K3 0.1 and 0.5 mM): activated
Compound: CC1=CC(=O)c2ccccc2C1=O [Vitamin K3, 2-methyl-1,4-naphthoquinone]
p-EGFR in skin of mice receiving erlotinib (EGFR [2]; erlotinib P.O. daily, skin smeared with Vitamin K3 15 mM in ethanol BID x 5 days (days 5 to 10)): rescues; also recorded: significant p-EGFR expression
effect on phosphatase activity (phosphatase activity; A431 cells, 0.1 mM VK3 for 1 hour, pNPP substrate): inhibits phosphatase activity; also recorded: inhibiting phosphatase activity
time after removal at which phosphatase inhibition is reversed (phosphatase activity; A431 cells, reincubation in VK3-free medium): 2 to 3 h
reversibility of phosphatase inhibition (phosphatase activity; following removal of VK3): reversible
decrease of cytotoxicity of the EGFR inhibitor (erlotinib) ([3]; co-incubation with Vitamin K3 50-100 μM, 72 hours, cell counting): 4-6 fold
dermatitis on topical administration ([4]; Page et al., 1942): can cause dermatitis
vesiculation of the skin on topical administration ([4]; Ulbrich, 1961): vesiculation of the skin
concentration at which activation of Stat-3 was seen (Stat-3; A431 cells, 2 hours exposure): 100 µM
activation (phosphorylation) of Stat-3 (Stat-3; A431 cells, 2 hours exposure): stimulated; also recorded: activated
activation of Stat-3 in the presence of erlotinib (Stat-3; A431 or HN5 cells, erlotinib 2 μM, at 0.1 and 0.5 mM vitamin K3): activated
activation of Stat-3 in the presence of cetuximab (Stat-3; Vitamin K3 0.1 and 0.5 mM): activated
activation of EGFR in the presence of erlotinib (EGFR [5]; A431 or HN5 cells, serum free medium, erlotinib 2 μM, Vitamin K3 0.01-0.5 mM, 2 hours): prevents the inhibition of EGFR phosphorylation; also recorded: activated
concentration at which activation of Akt was seen (Akt): 100 µM
activation (phosphorylation) of Akt (Akt): stimulated; also recorded: activated
activation of Akt in the presence of erlotinib (Akt; A431 or HN5 cells, erlotinib 2 μM, at 0.5 mM vitamin K3): activated
activation of Akt in the presence of cetuximab (Akt; Vitamin K3 0.1 and 0.5 mM): activated

Compound: CC(C)=CCC/C(C)=C/CC/C(C)=C/CC/C(C)=C/CC/C(C)=C/CC/C(C)=C/CC1=C(C)C(=O)c2ccccc2C1=O [Vitamin K2, 2-methyl-3-hexaprenyl-1,4-naphthoquinone]
activation (phosphorylation) of Stat-3 (Stat-3; A431 cells, 2 hours exposure): little or no effect
activation (phosphorylation) of EGFR (EGFR [5]; A431 cells): little or no effect
activation (phosphorylation) of Akt (Akt): little or no effect

Compound: C#Cc1cccc(Nc2ncnc3cc(OCCOC)c(OCCOC)cc23)c1 [erlotinib]
effect of exposure on cells ([3]; A431 cells, erlotinib alone): cell death

Compound: CC1=C(C/C=C(\C)CCC[C@H](C)CCC[C@H](C)CCCC(C)C)C(=O)c2ccccc2C1=O [Vitamin K1, 2-methyl-3-phytyl-1,4-naphthoquinone]
concentration at which activation of EGFR was seen (EGFR [5]; A431 cells): 1000 µM
activation (phosphorylation) of EGFR (EGFR [5]; A431 cells): activated
concentration at which activation was seen, converted to mass concentration (EGFR [5]; A431 cells): about 450 μg/ml
concentration at which activation of Akt was seen (Akt): 1000 µM
